Test results published in patent US20220033435A1, “Cyclic Di-Nucleotide Compounds as STING Agonists” (Merck Sharp & Dohme Corp., priority 2018, published 2022).

Columns and labels:
THP1 cells = experiment: IFN-β secretion in THP1 cell culture (5 h); assay type: cell-based, human; conditions: cGAMP at 30 uM set at 100%
Protocol: IFN-β secretion in THP1 cell culture (5 h)
The ability of compounds to stimulate the secretion of interferon-beta from THP1 cells was measured using a human IFN-0 AlphaLISA kit (Perkin Elmer, Cat. No. AL265F). The basic protocol is as follows:
A Labcyte Echo 550 acoustic dispenser was used to transfer 120 nL of compound dissolved in DMSO into the wells of an empty, sterile 384-well microplate, (Corning, Cat. No. 3712). THP1 cells (American Type Culture Collection, Cat. No. TIB202) previously frozen in Recovery Medium (Life Technologies, Cat. No. 12648-010) were thawed and immediately diluted 10-fold into 37° C. assay medium (RPMI 1640+L-Glutamine & phenol red, Life Technologies, Cat. No. 11875-085; 0.5% heat inactivated fetal bovine serum, Sigma Aldrich, Cat. No. F4135; 1 mM Sodium Pyruvate, Life Technologies, Cat. No. 11360-070; 1× non-essential amino acids; Life Technologies, Cat. No. 11140-050). The cell viability and count was ascertained using a Beckman Coulter V-Cell XR cell counter. The cell suspension was centrifuged at 200×g for 5 min at RT. Cells were resuspended to a density of 0.8×10^6/mL in 37° C. assay medium. Subsequent liquid transfers were performed using either a Matrix electronic multichannel pipette or an Agilent Bravo Automated Liquid Handling Platform. The assay was started by dispensing 40 μL of the previously prepared cell suspension into the wells of the plate containing compounds. After 5 h incubation at 37° C., 5% CO2 in a humidified atmosphere, the plate of cells and compounds was centrifuged at 200×g for 5 min at RT. From each well, 5 μL of supernatant was transferred into corresponding wells of a white 384-well plate (Perkin Elmer, Cat. No. 6005620). To these supernatant-containing wells was added 10 μL of 5× Anti-Analyte Acceptor beads (50 μg/mL of AlphaLISA HiBlock Buffer) and incubated for 30 min at RT while shaking on an orbital plate shaker. To each well was added 10 μL of 5× Biotinylated Antibody Anti-analyte (5 nM in AlphaLISA HiBlock Buffer) and incubated on an orbital plate shaker for 60 min at RT or overnight at 4° C. To each well was added 25 μL of 2×SA-Donor beads (80 μg/mL in AlphaLISA HiBlock Buffer) and incubated for 30-45 min at RT in the dark while shaking on an orbital plate shaker. The plate was then read on a Perkin Elmer Envision (λex=680 nm, […]). The percent effect of the AlphaLISA signal at each compound concentration was calculated based on 30 uM cGAMP positive controls and 0.3% DMSO negative controls. The plot of percent effect versus the log of compound concentration was fit with a 4-parameter concentration response equation to calculate EC50 values. The test compounds were tested at concentrations 30000, 10000, 3333, 1111, 370.4, 123.4, 41.2, 13.7, 4.6, and 1.5 nM with 0.3% residual DMSO. The control compound, cGAMP was tested at concentrations 100000, 33333, 11111, 3704, 1235, 412, 137, 46, and 15 nM with 0.3% residual DMSO.
Compounds of the disclosure were evaluated for IFN-β secretion in THP1 cell culture as described above. The following table tabulates the biological data for these compounds as percent activation relative to 2′3′-cGAMP at the 30 μM concentration.

full-length HAQ STING = target: T1, full-length HAQ STING (Homo sapiens, UniProt Q86WV6, G230A/H232R/R293Q/R71H); experiment: 3H-cGAMP filtration binding assay (HAQ STING); conditions: competition with tritiated cGAMP ligand, HAQ STING membrane
T1 construct: Full-Length HAQ STING [STING(1-379)R71H, G230A, H232R,; made in house; host or cells: Trichoplusia ni (Hi-Five) insect cells infected with baculovirus; washed membranes were used
From the text: The ability of compounds to bind STING is quantified by the ability to compete with tritiated cGAMP ligand for human STING receptor membrane using a radioactive filter-binding assay. The binding assay employs STING receptor obtained from Hi-Five cell membranes overexpressing full-length HAQ STING prepared in-house and tritiated cGAMP ligand also purified in-house.
The ability of compounds to bind STING is quantified by their ability to compete with tritiated cGAMP ligand for human STING receptor membrane using a radioactive filter-binding assay. The binding assay employs STING receptor obtained from Trichoplusia ni cell membranes (T.ni; Expression Systems, cat #94-002F, www.expressionsystems.com) overexpressing full-length HAQ STING and tritiated cGAMP ligand.
The basic HAQ STING filtration assay protocol is as follows:
Compound and membrane then preincubated for 60 min at RT to allow compound binding to equilibrate. Following equilibration, 8 nM of [^3H]c-GAMP ligand was prepared by diluting into assay buffer, and 50 uL of this working stock was then manually added to each well of the assay plate. […] The filter plates were then dried at 55° C. for 30 min using a pressurized oven before 30 uL of ULTIMA GOLD F scintillate was added to each well. Tritium levels for each reaction well were then measured using a PerkinElmer TopCount plate reader.
After normalization to controls, the percent activity for each compound concentration was calculated by measuring the amount of remaining radioactivity. The plot of percent activity versus the log of compound concentration was fit with a 4-parameter dose response equation to calculate EC50 values.

T1 sequence (Q86WV6 with tags, fused parts or gaps R71H/G230A/H232R/R293Q): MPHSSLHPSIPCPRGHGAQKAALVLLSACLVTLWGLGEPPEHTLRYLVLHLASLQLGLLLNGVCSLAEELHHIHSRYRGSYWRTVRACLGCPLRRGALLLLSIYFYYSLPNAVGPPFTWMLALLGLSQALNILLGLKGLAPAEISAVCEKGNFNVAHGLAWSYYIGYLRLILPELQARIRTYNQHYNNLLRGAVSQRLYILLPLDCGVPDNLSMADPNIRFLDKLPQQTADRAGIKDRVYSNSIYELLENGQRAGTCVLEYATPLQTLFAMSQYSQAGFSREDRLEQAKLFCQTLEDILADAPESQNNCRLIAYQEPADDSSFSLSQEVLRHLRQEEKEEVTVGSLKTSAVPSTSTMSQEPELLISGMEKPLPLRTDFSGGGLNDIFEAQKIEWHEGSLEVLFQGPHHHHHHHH

Row | EC50 (full-length HAQ STING) [nM] | SMILES | % Effect at 30 μM relative to 2′3′-cGAMP (THP1 cells) [%]
1 | 3690 | Nc1ncnc2c1ncn2[C@@H]1O[C@@H]2COP(=O)(S)O[C@@H]3[C@H](O)[C@@H](COP(=O)(S)O[C@@H]2[C@H]1O)O[C@H]3n1ccc(=O)n2ccnc12 (single isomer, unassigned) [Example 4] | 30
2 | 4410 | Nc1ncnc2c1ncn2[C@@H]1O[C@@H]2COP(=O)(S)O[C@@H]3[C@H](O)[C@@H](COP(=O)(S)O[C@@H]2[C@H]1O)O[C@H]3n1ccc(=O)n2ccnc12 (single isomer, unassigned) [Example 5] | 62
3 | 2.35 | Nc1nc2c(ncn2[C@@H]2O[C@@H]3COP(=O)(S)O[C@@H]4[C@H](F)[C@H](n5cnc6c(N)ncnc65)O[C@@H]4COP(=O)(S)O[C@@H]2C3)c(=O)[nH]1 (single isomer, unassigned) [Example 7] | 118

The remaining lines, values behind:

Row | SMILES | EC50 (full-length HAQ STING) [nM] | % Effect at 30 μM relative to 2′3′-cGAMP (THP1 cells) [%]
4 | Nc1nc2c(ncn2[C@@H]2O[C@@H]3COP(=O)(S)O[C@@H]4C[C@H](n5cnc6c(N)ncnc65)O[C@@H]4COP(=O)(S)O[C@@H]2[C@@H]3F)c(=O)[nH]1 (single isomer, unassigned) [Example 1] | – | 112
5 | Nc1nc2c(ncn2[C@@H]2O[C@@H]3COP(=O)(S)O[C@@H]4C[C@H](n5cnc6c(N)ncnc65)O[C@@H]4COP(=O)(S)O[C@@H]2[C@@H]3F)c(=O)[nH]1 (single isomer, unassigned) [Example 2] | – | 114
6 | Nc1nc2c(ncn2[C@@H]2O[C@@H]3COP(=O)(S)O[C@@H]4[C@H](F)[C@H](n5cnc6c(N)ncnc65)O[C@@H]4COP(=O)(S)O[C@@H]2C3)c(=O)[nH]1 (single isomer, unassigned) [Example 6] | 48.6 | 61
7 | Nc1nc2c(ncn2[C@@H]2O[C@@H]3COP(=O)(S)O[C@@H]4[C@@H](O)[C@H](n5cnc6c(N)ncnc65)O[C@@H]4COP(=O)(S)O[C@@H]2C3)c(=O)[nH]1 (stereo partly drawn) [Example 3, 2-amino-9-[(5S,7R,8R,12aR,14R,15R,15aR)-14-(6-amino-9H-purin-9-yl)-15-hydroxy-2,10-dioxido-2,10-disulfanyloctahydro-12H-5,8-methanofuro[3,2-l][1,3,6,9,11,2,10]penta-oxadiphosphacyclotetradecin-7-yl]-1,9-dihydro-6H-purin-6-one] | – | 63
